Reference: US12421240B2, “Hydropyrazino[1,2-d][1,4]diazepine compounds for the treatment of autoimmune disease” (Hoffmann-La Roche Inc., priority 2019, dated 2025)

Biological target: T1, human TLR8 (Homo sapiens, UniProt Q9NR97)
T1 sequence (Q9NR97 27-1041): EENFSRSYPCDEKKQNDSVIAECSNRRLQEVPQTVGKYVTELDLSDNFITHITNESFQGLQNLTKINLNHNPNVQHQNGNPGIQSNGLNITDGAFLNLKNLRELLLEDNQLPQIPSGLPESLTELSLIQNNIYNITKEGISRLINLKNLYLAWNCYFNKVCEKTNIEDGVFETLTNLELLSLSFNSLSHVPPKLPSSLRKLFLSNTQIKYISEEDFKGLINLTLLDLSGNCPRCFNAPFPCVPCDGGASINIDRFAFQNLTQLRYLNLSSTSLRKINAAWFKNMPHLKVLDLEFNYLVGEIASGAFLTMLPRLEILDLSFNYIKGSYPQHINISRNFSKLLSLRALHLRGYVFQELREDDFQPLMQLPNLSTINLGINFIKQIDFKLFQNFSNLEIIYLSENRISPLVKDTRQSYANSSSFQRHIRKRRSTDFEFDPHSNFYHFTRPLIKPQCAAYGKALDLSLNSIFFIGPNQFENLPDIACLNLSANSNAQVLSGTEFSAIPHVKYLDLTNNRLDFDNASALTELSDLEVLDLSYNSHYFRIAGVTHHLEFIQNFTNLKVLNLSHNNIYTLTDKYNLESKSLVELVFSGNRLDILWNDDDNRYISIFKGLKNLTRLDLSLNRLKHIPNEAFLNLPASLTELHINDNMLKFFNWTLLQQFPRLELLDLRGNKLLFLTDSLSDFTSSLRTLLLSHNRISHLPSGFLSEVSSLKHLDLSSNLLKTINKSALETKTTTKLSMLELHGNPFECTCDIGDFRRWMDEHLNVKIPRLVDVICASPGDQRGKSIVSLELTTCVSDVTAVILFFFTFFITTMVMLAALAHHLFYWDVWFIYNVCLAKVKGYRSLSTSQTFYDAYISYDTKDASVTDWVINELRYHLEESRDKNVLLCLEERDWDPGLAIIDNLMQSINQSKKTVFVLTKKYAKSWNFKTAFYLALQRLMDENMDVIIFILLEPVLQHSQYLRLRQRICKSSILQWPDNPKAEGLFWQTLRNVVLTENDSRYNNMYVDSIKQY
Test: HEK293-Blue-hTLR-8 cells assay (SEAP reporter, R848 stimulation)
Format: cell-based
Conditions: HEK293-Blue-hTLR8 cells, R848 ligand, 20 hrs; read-out: HEK/hTLR8 IC50
Description: The following tests were carried out in order to determine the activity of the compounds of formula (I), (Ia) or (Ib) in HEK293-Blue-hTLR-7/8/9 cells assay.
HEK293-Blue-hTLR-8 Cells Assay:
A stable HEK293-Blue-hTLR-8 cell line was purchased from InvivoGen (Cat. #: hkb-htlr8, San Diego, California, USA). These cells were originally designed for studying the stimulation of human TLR8 by monitoring the activation of NF-κB. A SEAP (secreted embryonic alkaline phosphatase) reporter gene was placed under the control of the IFN-β minimal promoter fused to five NF-κB and AP-1-binding sites. The SEAP was induced by activating NF-κB and AP-1 via stimulating HEK-Blue hTLR8 cells with TLR8 ligands. Therefore the reporter expression was declined by TLR8 antagonist under the stimulation of a ligand, such as R848, for incubation of 20 hrs. The cell culture supernatant SEAP reporter activity was determined using QUANTI-Blue™ kit (Cat. #: rep-qb1, Invivogen, San Diego, Ca., USA) at a wavelength of 640 nm, a detection medium that turns purple or blue in the presence of alkaline phosphatase.
HEK293-Blue-hTLR8 cells were incubated at a density of 250,000˜450,000 cells/mL in a volume of 170 μL in a 96-well plate in Dulbecco's Modified Eagle's medium (DMEM) containing 4.5 g/L glucose, 50 U/mL penicillin, […], […], 2 mM L-glutamine, 10% (v/v) heat-inactivated fetal bovine serum with addition of 20 μL test compound in a serial dilution in the presence of final DMSO at 1% and 10 μL of 60 uM R848 in above DMEM, perform incubation under 37° C. in a CO2 incubator for 20 hrs. Then 20 μL of the supernatant from each well was incubated with 180 μL Quanti-blue substrate solution at 37° C. for 2 hrs and the absorbance was read at 620-655 nm using a spectrophotometer. The signaling pathway that TLR8 activation leads to downstream NF-κB activation has been widely accepted, and therefore similar reporter assay was modified for evaluating TLR8 antagonist.

| Structure (SMILES) | IC50 [nM] |
| --- | --- |
| C[C@@H]1CN(c2ccc(C#N)c3ncccc23)C[C@@H]2CCN(Cc3ccc4c(c3)CNCC4)CCN21 [Example 12, 5-[(4R,10aS)-4-methyl-8-(1,2,3,4-tetrahydroisoquinolin-7-ylmethyl)-1,3,4,6,7,9,10,10a-octahydropyrazino[1,2-d][1,4]diazepin-2-yl]quinoline-8-carbonitrile] | 2.7 |
| C[C@@H]1CN(c2ccc(C#N)c3ncccc23)C[C@@H]2CCN(Cc3cncc(N4CCNCC4)c3)CCN21 [Example 16, 5-[(4R,10aS)-4-methyl-8-[(5-piperazin-1-yl-3-pyridyl)methyl]-1,3,4,6,7,9,10,10a-octahydropyrazino[1,2-d][1,4]diazepin-2-yl]quinoline-8-carbonitrile] | 12.1 |
| C[C@@H]1CN(c2ccc(C#N)c3ncccc23)C[C@@H]2CCN(Cc3ccc(N4CCNCC4)nc3)CCN21 [Example 17, 5-[(4R,10aS)-4-methyl-8-[(6-piperazin-1-yl-3-pyridyl)methyl]-1,3,4,6,7,9,10,10a-octahydropyrazino[1,2-d][1,4]diazepin-2-yl]quinoline-8-carbonitrile] | 3.4 |
| C[C@@H]1CN(c2ccc(C#N)c3ncccc23)C[C@@H]2CCN(Cc3cccc(N4CCNCC4)n3)CCN21 [Example 18, 5-[(4R,10aS)-4-methyl-8-[(6-piperazin-1-yl-2-pyridyl)methyl]-1,3,4,6,7,9,10,10a-octahydropyrazino[1,2-d][1,4]diazepin-2-yl]quinoline-8-carbonitrile] | 8.1 |
| C[C@@H]1CN(c2ccc(C#N)c3ncccc23)C[C@@H]2CCN(Cc3ccc(N4C[C@@H](N)[C@@H](F)C4)cn3)CCN21 [Example 20, 5-[(4R,10aS)-8-[[5-[(3R,4S)-3-amino-4-fluoro-pyrrolidin-1-yl]-2-pyridyl]methyl]-4-methyl-1,3,4,6,7,9,10,10a-octahydropyrazino[1,2-d][1,4]diazepin-2-yl]quinoline-8-carbonitrile] | 11 |
| C[C@@H]1CN(c2ccc(C#N)c3ncccc23)C[C@@H]2CCN(Cc3ccc(N4CCOC[C@H](N)C4)cn3)CCN21 [Example 21, 5-[(4R,10aS)-8-[[5-[(6R)-6-amino-1,4-oxazepan-4-yl]-2-pyridyl]methyl]-4-methyl-1,3,4,6,7,9,10,10a-octahydropyrazino[1,2-d][1,4]diazepin-2-yl]quinoline-8-carbonitrile] | 86.9 |
| CO[C@@H]1CN(c2ccc(CN3CC[C@H]4CN(c5ccc(C#N)c6ncccc56)C[C@@H](C)N4CC3)nc2)C[C@H]1N [Example 22, 5-[(4R,10aS)-8-[[5-[(3R,4R)-3-amino-4-methoxy-pyrrolidin-1-yl]-2-pyridyl]methyl]-4-methyl-1,3,4,6,7,9,10,10a-octahydropyrazino[1,2-d][1,4]diazepin-2-yl]quinoline-8-carbonitrile] | 14.1 |
| CO[C@@H]1CN(c2cnc(CN3CC[C@H]4CN(c5ccc(C#N)c6ncccc56)C[C@@H](C)N4CC3)c(F)c2)C[C@H]1N [Example 24, 5-[(4R,10aS)-8-[[5-[(3R,4R)-3-amino-4-methoxy-pyrrolidin-1-yl]-3-fluoro-2-pyridyl]methyl]-4-methyl-1,3,4,6,7,9,10,10a-octahydropyrazino[1,2-d][1,4]diazepin-2-yl]quinoline-8-carbonitrile] | 7.9 |
| CO[C@@H]1CN(c2cnc(CN3CC[C@H]4CN(c5ccc(C#N)n6nccc56)C[C@@H](C)N4CC3)c(F)c2)C[C@H]1N [Example 26, 4-[(4R,10aS)-8-[[5-[(3R,4R)-3-amino-4-methoxy-pyrrolidin-1-yl]-3-fluoro-2-pyridyl]methyl]-4-methyl-1,3,4,6,7,9,10,10a-octahydropyrazino[1,2-d][1,4]diazepin-2-yl]pyrazolo[1,5-a]pyridine-7-carbonitrile] | 85.7 |
| CO[C@@H]1CN(c2cnc(CN3CC[C@H]4CN(c5ccc(C#N)n6ncc(F)c56)C[C@@H](C)N4CC3)c(F)c2)C[C@H]1N [Example 27, 4-[(4R,10aS)-8-[[5-[(3R,4R)-3-amino-4-methoxy-pyrrolidin-1-yl]-3-fluoro-2-pyridyl]methyl]-4-methyl-1,3,4,6,7,9,10,10a-octahydropyrazino[1,2-d][1,4]diazepin-2-yl]-3-fluoro-pyrazolo[1,5-a]pyridine-7-carbonitrile] | 10.1 |
| C[C@@H]1CN(c2cc(=O)n(C)c3ncccc23)C[C@@H]2CCN(Cc3ccc4c(c3)CNCC4)CCN21 [Example 28, 4-[(4R,10aS)-4-methyl-8-(1,2,3,4-tetrahydroisoquinolin-7-ylmethyl)-1,3,4,6,7,9,10,10a-octahydropyrazino[1,2-d][1,4]diazepin-2-yl]-1-methyl-1,8-naphthyridin-2-one] | 51.1 |

Other lines, results leading:

| IC50 [nM] | Structure (SMILES) |
| --- | --- |
| 31.7 | C[C@@H]1CN(c2ccc(C#N)c3ncccc23)C[C@@H]2CCN(Cc3ncc(N4CCNCC4)cn3)CCN21 [Example 13, 5-[(4R,10aS)-4-methyl-8-[(5-piperazin-1-ylpyrimidin-2-yl)methyl]-1,3,4,6,7,9,10,10a-octahydropyrazino[1,2-d][1,4]diazepin-2-yl]quinoline-8-carbonitrile] |
| 4.9 | C[C@@H]1CN(c2ccc(C#N)c3ncccc23)C[C@@H]2CCN(Cc3cnc(N4CCNCC4)nc3)CCN21 [Example 14, 5-[(4R,10aS)-4-methyl-8-[(2-piperazin-1-ylpyrimidin-5-yl)methyl]-1,3,4,6,7,9,10,10a-octahydropyrazino[1,2-d][1,4]diazepin-2-yl]quinoline-8-carbonitrile] |
| 8.6 | C[C@@H]1CN(c2ccc(C#N)c3ncccc23)C[C@@H]2CCN(Cc3cnc(N4CCNCC4)cn3)CCN21 [Example 15, 5-[(4R,10aS)-4-methyl-8-[(5-piperazin-1-ylpyrazin-2-yl)methyl]-1,3,4,6,7,9,10,10a-octahydropyrazino[1,2-d][1,4]diazepin-2-yl]quinoline-8-carbonitrile] |
| 10.2 | C[C@@H]1CN(c2ccc(C#N)c3ncccc23)C[C@@H]2CCN(Cc3ccc(N4CCNCC4)cn3)CCN21 [Example 19, 5-[(4R,10aS)-4-methyl-8-[(5-piperazin-1-yl-2-pyridyl)methyl]-1,3,4,6,7,9,10,10a-octahydropyrazino[1,2-d][1,4]diazepin-2-yl]quinoline-8-carbonitrile] |
| 8.3 | C[C@@H]1CN(c2ccc(C#N)c3ncccc23)C[C@@H]2CCN(Cc3ncc(N4CCNCC4)cc3F)CCN21 [Example 23, 5-[(4R,10aS)-8-[(3-fluoro-5-piperazin-1-yl-2-pyridyl)methyl]-4-methyl-1,3,4,6,7,9,10,10a-octahydropyrazino[1,2-d][1,4]diazepin-2-yl]quinoline-8-carbonitrile] |
